Assay results published in patent US20210228548A1, “PHARMACEUTICAL COMPOSITION FOR PREVENTING, ALLEVIATING OR TREATING OSTEOARTHRITIS, CONTAINING RHODANINE DERIVATIVE AS ACTIVE INGREDIENT” (Avixgen Inc., priority 2018, published 2021).
Entries after “also recorded” stand apart in the source; their conditions may differ.

Key:
Assay type in all cases: in vivo, C57/BL6 mice
[1] = system: ZIP8-overexpressing mice; assay: Cartilage destruction in mice with osteoarthritis induced by ZIP8 overexpression (safranin-O staining, modified Mankin score); conditions: Ad-ZIP8 mice, three injections; for modified Mankin score (degree of cartilage destruction): intra-articular 0.0075, 0.015, 0.03 mg/kg once a week, vehicle group 2 or higher, also decreased concentration-dependently, FIGS. 2A, 4A, 6A; for loss of the cartilage matrix (safranin-O staining of whole joint and cartilage): intra-articular co-injection 0.0075, 0.015, 0.03 mg/kg once a week, versus vehicle group, FIGS. 1, 3, 5
Procedure: (§1) Osteoarthritis-induced mice were prepared by overexpressing the zinc importer ZIP8 in the cartilage and joint tissues of mice.
(§2) Specifically, the cartilage and joint tissues of about 12-week-old male C57/BL6 mice were injected intra-articularly with a normal control adenovirus (Ad-C) or a ZIP8-expressing adenovirus (Ad-S1c39a8). A vehicle group was treated only with a vehicle without a vector. Each of the adenoviruses was injected at a concentration of 1×10^9 PFU a total of three times (once a week).
(§3) Meanwhile, in order to evaluate the effect of each of the therapeutic agents AVIX-7, MA3001 and MA6004 on the amelioration of osteoarthritis induced by ZIP8 overexpression, AVIX-7, MA3001 or MA6004 was co-injected into the joint when each adenovirus was injected.
(§4) Each of the therapeutic agents was used at doses of 0.0075 mg/kg, 0.015 mg/kg and 0.03 mg/kg mouse body weight. Each therapeutic agent was administered by injection once a week, and the amount of each therapeutic agent administered at each time point was 10 μl. One week after the day of the last injection of a total of three injections, the mice were sacrificed and the degree of cartilage destruction and the degree of occurrence of synovitis were analyzed.
In order to evaluate the therapeutic effect of AVIX-7, MA3001 or MA6004 on osteoarthritis in ZIP8-overexpressing mice, whole joint and cartilage tissues were stained with safranin-O and the degree of cartilage destruction was checked.
In addition, the degree of safranin-O staining (reflecting the degree of cartilage destruction) according to Table 2 below was observed and degraded according to the modified Mankin score (Mankin, Henry J., and Louis Lippiello. JBJS 52.3 (1970): 424-434.), and the grades were quantified graphically. The Mankin score is an index indicating the degree of arthritis and may be determined by the degree of safranin-O staining in mice, and the lower the Mankin score, the closer to normal.

[2] = system: mice with osteoarthritis induced by DMM; assay: Osteoarthritis induced by destabilization of the medial meniscus (DMM): staining, OARSI grade, subchondral bone plate thickness; conditions: intra-articular 0.0075, 0.015, 0.03 mg/kg once a week, three injections; for thickness of the subchondral bone plate (SBP): versus vehicle group (significantly increased), FIGS. 8B, 10B, 12B; for inflammation response in whole joint and cartilage tissues (images and OARSI grade): versus vehicle group, FIGS. 7B, 9B, 11B, 8A, 10A, 12A
Procedure: Mice with osteoarthritis induced by destabilization of the medial meniscus (DMM) were prepared. As a control group, a group (sham) whose meniscus was not damaged during surgery was used.
Specifically, osteoarthritis was induced by damaging the menisci of joints of about 12-week-old male C57/BL6 mice, and each therapeutic agent (AVIX-7, MA3001 or MA6004) was injected intra-articularly.
Each of the therapeutic agents was used at doses of 0.0075 mg/kg, 0.015 mg/kg and 0.03 mg/kg mouse body weight. Each therapeutic agent was administered by injection once a week, and the amount of each therapeutic agent administered at each time point was 10 μl. One week after the day of the last injection of a total of three injections, the mice were sacrificed and the effect of each therapeutic agent on the amelioration of osteoarthritis was evaluated.
In order to evaluate the effect of the compounds of the present disclosure on the amelioration of osteoarthritis, mice were subjected to destabilization of the medial meniscus (DMM) to induce osteoarthritis and were treated with AVIX-7, MA3001 or MA6004. In addition, the cartilage and joint tissues were stained with hematoxylin-eosin/safranin-O, and the effect of AVIX-7, MA3001 or MA6004 on the amelioration of osteoarthritis was evaluated pathologically. […] The OARSI grading method is described in Table 4 below.

[3] = system: ZIP8-overexpressing mice; assay: Synovitis in ZIP8-overexpressing animal model (hematoxylin-eosin/safranin-O staining, synovitis score); conditions: Ad-ZIP8 mice, intra-articular 0.0075, 0.015, 0.03 mg/kg once a week, three injections; for score of synovitis: untreated ZIP8 mice 2 or higher, FIGS. 2B, 4B, 6B; for inflammatory response (penetration of inflammatory cells into the synovium): versus vehicle group, FIGS. 1, 3, 5
Procedure: as §1, §2, §3, §4
In order to evaluate the osteoarthritis amelioration effect of each of the therapeutic agents developed in the present disclosure, the ZIP8-overexpressing animal model was treated with AVIX-7, MA3001 or MA6004, and the cartilage and joint tissues of the animal model were stained with hematoxylin-eosin/safranin-O, and the presence or absence of synovitis was checked. The ZIP8-overexpressing animal model was prepared by the method described in Example 1.
In addition, the degree of synovitis was scored according to “Synovitis score: discrimination between chronic low-grade and high-grade synovitis. Histopathology 49, 358-364” described in Table 3 below, and was quantified graphically.

| SMILES | modified Mankin score (degree of cartilage destruction) [1] | loss of the cartilage matrix (safranin-O staining of whole joint and cartilage) [1] | thickness of the subchondral bone plate (SBP) [2] | inflammation response in whole joint and cartilage tissues (images and OARSI grade) [2] | score of synovitis [3] | inflammatory response (penetration of inflammatory cells into the synovium) [3] |
| --- | --- | --- | --- | --- | --- | --- |
| O=C(O)CCN1C(=O)/C(=C\c2ccc(-c3ccc(Cl)cc3)o2)SC1=S [AVIX-7, 3-{5-[5-(4-chlorophenyl)-furan-2-ylmethylene]-4-oxo-2-thioxo-thiazolidin-3-yl}-propionic acid] | lower than that of the vehicle group | rescuing the loss of cartilage matrix; also recorded: concentration-dependently rescued | decreased | alleviated | significantly decreased | alleviating synovitis; also recorded: alleviated |
| CC(C)OC(=O)c1ccc(-c2ccc(/C=C3\SC(=S)N(CCCC(=O)O)C3=O)o2)cc1 [MA3001, 4-(5-((5-(4-(isopropoxycarbonyl)phenyl)furan-2-yl)methylene)-4-oxo-2-thioxothiazolidin-3-yl)butanoic acid] | lower than that of the vehicle group | rescuing the loss of cartilage matrix; also recorded: concentration-dependently rescued | decreased | alleviated | significantly decreased | alleviating synovitis; also recorded: alleviated |
| O=C(O)CCN1C(=O)SC(Cc2ccc(-c3ccc(Cl)cc3)o2)C1=O (stereo not drawn) [MA6004, 3-(5-((5-(4-chlorophenyl)furan-2-yl)methyl)-2,4-dioxothiazolidin-3-yl)propionic acid] | lower than that of the vehicle group | rescuing the loss of cartilage matrix; also recorded: concentration-dependently rescued | decreased | alleviated | significantly decreased | alleviating synovitis; also recorded: alleviated |
